Source: US11591316B2, “Compounds, compositions, and methods” (DENALI THERAPEUTICS INC., priority 2016, dated 2023)

Assay: Metabolic stability in human liver microsomes
Type: in vitro ADME
Settings: 1 μM compound, 0.5 mg/mL protein, projected hepatic clearance (well-stirred model), Table 5
Procedure: Metabolic stability of compounds was evaluated in human liver microsomes (from Corning or XenoTech, LLC) using a 96-well plate assay format. Compounds were incubated at 37° C. at 1 μM final concentration in the microsomal matrix (0.5 mg/mL total protein) in the presence or absence of NADPH cofactor. An NADPH regenerating system, comprised of NADP, MgCl2, isocitric acid, and isocitrate dehydrogenase, was used in the assay. Enzymatic reactions were conducted for 0, 5, 10, 20, 30, or 60 min before termination by addition of acetonitrile containing tolbutamide and labetalol internal standards (100 ng/mL). After shaking for 10 min, plates were subjected to centrifugation (4000 rpm at 4° C.) for 20 min and supernatants were mixed 1:3 with HPLC grade water. Samples were analyzed by LC-MS/MS using appropriate MRM transitions for each analyte and internal standard (IS). Analyte/IS peak area ratios were used to determine percent compound remaining at each time point. Intrinsic clearance (Clint; expressed as mL·min^−1·mg^−1) was calculated from the first order elimination constant (k, min^−1) of test article decay and the volume of the incubation. These values were scaled to intrinsic organ clearance (Clint) using human specific scaling factors (48.8 mg microsomal protein per g liver; 25.7 g liver per kg body weight). […]

Human liver microsomes CLhep [mL/min/kg] | SMILES
0.75 | [2H]C([2H])([2H])n1nc(C(C)(C)n2nccn2)cc1Nc1ncc(C(F)(F)F)c(NCC)n1 [Compound 34, N4-Ethyl-N2-[1-(^2H3)methyl-3-[2-(2H-1,2,3-triazol-2-yl)propan-2-yl]-1H-pyrazol-5-yl]-5-(trifluoromethyl)pyrimidine-2,4-diamine]
0 | CNc1nc(Nc2cn(C(C)(C)c3ncn(C)n3)nc2C)ncc1C(F)(F)F [Compound 218]
